Assay results as given in patent US12297210B2, “Naphthyridine compounds and uses thereof” (Genentech, Inc., priority 2018, dated 2025).

biological target: T1, HPK full length, T165E S171E (Homo sapiens, UniProt Q92918, S171E/T165E); assay: HPK1-FL HTRF Enzymatic Assay ("HTRF"); format: biochemical; conditions: ATP 1 mM, read-out: HPK1 Ki (nM) H = HTRF
T1 construct: HPK full length, T165E S171E: 0.125 nM
Description: Example B1: HPK1-FL HTRF Enzymatic Assay (“HTRF”)
HPK-FL enzyme phosphorylates Biotin-SLP-76 substrate in the presence of ATP at 1 mM and varying concentrations of test compound. Product is detected by FRET using Eu-anti-pSLP76 Ab and SA-XL665. Also see www.cisbio.com/HTRF for additional HTRF technology information.
• Echo555 compound dispenser • Agilent Bravo • Perkin Elmer Envision Final Assay Conditions: • HPK full length, T165E S171E: 0.125 nM • Biotin-SLP76: 100 nM • ATP: 1 mM (ATP Km=20 μM) • Eu-anti-pSLP76: 2 nM • SA-XL665: 8.3 nM • Preincubation time: 30 min • Kinase reaction time: 60 min • Temperature: ambient • Total volume: 12 μl • ATP^app Km: 17.7 μM Materials: • Assay plate: White ProxiPlate 384 F (PerkinElmer cat #6008289) • Kinase: HPK full length double mutant • Substrate: Biotin-SLP76 • ATP: 100 mM ATP • BSG: 2% BSG • DMSO: DMSO(Sigma cat #34869-100ML) • Reaction Buffer: H2O/50 mM HEPES, pH 7.5/10 mM MgCl2/2 mM TCEP/0.01% Brij-35/0.01% BSG • Detection mix: Eu-anti-pSLP76/SA-XL665 (Cisbio, #610SAXAC) Assay Procedure Ki Determination:
To a 384 well Proxiplate with 80 nL compound or DMSO spotted on was added 4 μl/well kinase mix. The mixture was preincubated for 30 minutes and then 4 μl/well substrate mix was added. The solution was incubated for 60 min and then 4 μl/well detection mix was added. The solution was incubated for another 60 min. The plates were then loaded onto a Perkin Elmer Envision and the TR-FRET signal was measured at 615 and 665 nm. A ratio of […] was used to calculate the % activity at each concentration of compound.

T1 sequence (Q92918 whole entry T165E/S171E): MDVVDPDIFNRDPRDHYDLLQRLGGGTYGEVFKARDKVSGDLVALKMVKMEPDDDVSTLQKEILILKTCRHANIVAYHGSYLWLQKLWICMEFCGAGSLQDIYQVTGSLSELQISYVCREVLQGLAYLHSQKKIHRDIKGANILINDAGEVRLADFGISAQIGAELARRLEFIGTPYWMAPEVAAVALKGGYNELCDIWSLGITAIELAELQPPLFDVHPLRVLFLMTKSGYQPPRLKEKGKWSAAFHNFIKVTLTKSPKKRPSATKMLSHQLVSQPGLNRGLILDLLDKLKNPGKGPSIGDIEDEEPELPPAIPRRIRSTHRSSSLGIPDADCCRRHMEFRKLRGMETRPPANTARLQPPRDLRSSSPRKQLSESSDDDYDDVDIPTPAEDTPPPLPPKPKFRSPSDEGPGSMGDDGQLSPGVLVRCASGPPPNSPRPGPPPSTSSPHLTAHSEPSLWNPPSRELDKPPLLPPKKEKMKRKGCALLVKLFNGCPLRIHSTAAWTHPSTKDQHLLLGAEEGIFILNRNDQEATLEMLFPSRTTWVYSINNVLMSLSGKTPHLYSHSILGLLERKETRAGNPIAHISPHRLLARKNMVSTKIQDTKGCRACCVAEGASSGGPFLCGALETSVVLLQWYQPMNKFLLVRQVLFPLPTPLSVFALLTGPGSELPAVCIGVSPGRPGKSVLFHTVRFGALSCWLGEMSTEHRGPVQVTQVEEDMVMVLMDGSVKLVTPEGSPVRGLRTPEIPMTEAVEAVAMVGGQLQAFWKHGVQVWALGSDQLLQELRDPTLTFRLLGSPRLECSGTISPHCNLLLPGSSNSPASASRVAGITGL

SMILES	Ki [nM]
Cc1c(N)cncc1-c1cc2cc(Nc3cc4n(n3)CC(=O)N(CC(F)F)CC4)ncc2cn1 [Compound 102, 2-((6-(5-amino-4-methylpyridin-3-yl)-2,7-naphthyridin-3-yl)amino)-6-(2,2-difluoroethyl)-5,6-dihydro-4H-pyrazolo[1,5-d][1,4]diazepin-7(8H)-one]	4
Cc1c(N)cncc1-c1cc2cc(Nc3cc4n(n3)CC(=O)N(C(C)C)CC4)ncc2cn1 [Compound 104, 2-((6-(5-amino-4-methylpyridin-3-yl)-2,7-naphthyridin-3-yl)amino)-6-isopropyl-5,6-dihydro-4H-pyrazolo[1,5-d][1,4]diazepin-7(8H)-one]	2.3
Cc1c(N)cncc1-c1cc2cc(Nc3cc4n(n3)Cc3nccn3CC4)ncc2c(C)n1 [Compound 105, N-(6-(5-amino-4-methylpyridin-3-yl)-8-methyl-2,7-naphthyridin-3-yl)-5,6-dihydro-11H-imidazo[1,2-a]pyrazolo[1,5-d][1,4]diazepin-8-amine]	0.85
Cc1c(N)cncc1-c1cc2cc(Nc3cc4n(n3)CC(=O)N(C(C)C)CC4)ncc2c(C)n1 [Compound 106, 2-((6-(5-amino-4-methylpyridin-3-yl)-8-methyl-2,7-naphthyridin-3-yl)amino)-6-isopropyl-5,6-dihydro-4H-pyrazolo[1,5-d][1,4]diazepin-7(8H)-one]	2.5
COc1nc(-c2cnc3c(c2C)NCCO3)cc2cc(Nc3cc4n(n3)CC(=O)N(C)CC4)ncc12 [Compound 107, 2-((8-methoxy-6-(8-methyl-2,3-dihydro-1H-pyrido[2,3-b][1,4]oxazin-7-yl)-2,7-naphthyridin-3-yl)amino)-6-methyl-5,6-dihydro-4H-pyrazolo[1,5-d][1,4]diazepin-7(8H)-one]	2.1
Cc1c(-c2cc3cc(Nc4cc5n(n4)CC(=O)N(C)CC5)ncc3c(C)n2)cnc2c1NCCO2 [Compound 108, 6-methyl-2-((8-methyl-6-(8-methyl-2,3-dihydro-1H-pyrido[2,3-b][1,4]oxazin-7-yl)-2,7-naphthyridin-3-yl)amino)-5,6-dihydro-4H-pyrazolo[1,5-d][1,4]diazepin-7(8H)-one]	0.66
Cc1c(-c2cc3cc(Nc4cc5n(n4)CC(=O)N(C)CC54CC4)ncc3c(C)n2)cnc2c1NCCO2 [Compound 109, 6′-methyl-2′-((8-methyl-6-(8-methyl-2,3-dihydro-1H-pyrido[2,3-b][1,4]oxazin-7-yl)-2,7-naphthyridin-3-yl)amino)-5′,6′-dihydrospiro[cyclopropane-1,4′-pyrazolo[1,5-d][1,4]diazepin]-7′(8′H)-one]	0.03
CNCc1cc(C)c(-c2cc3cc(Nc4cc5n(n4)CC(=O)N(C)CC5)ncc3cn2)c(F)c1 [Compound 110, 2-((6-(2-fluoro-6-methyl-4-((methylamino)methyl)phenyl)-2,7-naphthyridin-3-yl)amino)-6-methyl-5,6-dihydro-4H-pyrazolo[1,5-d][1,4]diazepin-7(8H)-one]	13
Cc1ccncc1-c1cc2cc(Nc3cc(C(=O)N(C)C)c(N)cn3)ncc2cn1 [Compound 201, 5-amino-N,N-dimethyl-2-((6-(4-methylpyridin-3-yl)-2,7-naphthyridin-3-yl)amino)isonicotinamide]	463
Cc1ccncc1-c1cc2cc(Nc3ccc(S(C)(=O)=O)cn3)ncc2cn1 [Compound 202, 6-(4-methylpyridin-3-yl)-N-(5-(methylsulfonyl)pyridin-2-yl)-2,7-naphthyridin-3-amine]	291
Cc1ccncc1-c1cc2cc(Nc3ccc(CO)cn3)ncc2cn1 [Compound 206, (6-((6-(4-methylpyridin-3-yl)-2,7-naphthyridin-3-yl)amino)pyridin-3-yl)methanol]	577
Cc1cc(Nc2cc3cc(C4CC4)ncc3cn2)ncn1 [Compound 209, 6-cyclopropyl-N-(6-methylpyrimidin-4-yl)-2,7-naphthyridin-3-amine]	> 2000
